pIC50: −log10 of the molar value.
Tested on: YAP/TAZ-TEAD transcription
Test: Reporter gene assay for measuring the inhibition of YAP/TAZ-TEAD transcription (TEAD-responsive element luciferase reporter in Hek293T cells)
Format: cell-based
Conditions: Homo sapiens, HEK-293T, 24 h, 24 hours incubation
Description: Example 56: Activity of Compounds of the Disclosure in a Reporter Gene Assay for Measuring the Inhibition of YAP/TAZ-TEAD Transcription
Hek293T cells were cultured in DMEM supplemented with 10% fetal bovine serum, Sodium pyruvate, Sodium bicarbonate, L-glutamine. The cells were harvested and transiently transfected with TEAD-responsive element luciferase reporter. Transfected cells were plated in 384-well plate containing pre-diluted compounds. After 24 hours incubation at 37° C./5% CO2, assay plates were cooled to room temperature and levelled to an equal volume per well, prior to the addition of 25 uL luciferase substrate SteadyLite (Perkin Elmer)/well. The plate was shaken for 10 min at 600 rpm, centrifuged for 1 min at 500 rpm and measured with an Envision reader (PerkinElmer). The amount of relative light units produced by the TEAD reporter was used to calculate the percentage of inhibition.
The percent of reporter inhibition was calculated in the presence of a positive control inhibitor (100% inhibition) versus a condition with the presence of the vehicle basal activity of the reporter (0% inhibition). The ability of a test compound to inhibit this activity was determined as: Percentage inhibition=[[…]((RLU determined in the presence of vehicle−RLU determined for sample with test compound present) divided by (RLU determined in the presence of vehicle−RLU determined for sample with positive control inhibitor))]*100.
The activities of example compounds tested are depicted in Table 3. The activity ranges A, B and C refer to IC50 values in the reporter gene assay as follows: “A”: IC50<1 μM; “B”: 1 μM≤IC50≤10 μM and “C”: IC50>10 μM; NT=not tested.

Compound	pIC50
CC(=O)NCC1CN(c2ccc(C(F)(F)F)cc2)c2ccccc2N1CCO (stereo not drawn) [compound 2, N-((1-(2-hydroxyethyl)-4-(4-(trifluoromethyl)phenyl)-1,2,3,4-tetrahydroquinoxalin-2-yl)methyl)acetamide]	< 5.00
CC(=O)NCC1CN(c2ccc(C(F)(F)F)cc2)c2ccccc2N1CC#N (stereo not drawn) [compound 4, N-((1-(cyanomethyl)-4-(4-(trifluoromethyl)phenyl)-1,2,3,4-tetrahydroquinoxalin-2-yl)methyl)acetamide]	5.00 to 6.00
C=CC(=O)NCC1CN(c2ccc(C(F)(F)F)cc2)c2ccccc2N1CCCO (stereo not drawn) [compound 5, N-((1-(3-hydroxypropyl)-4-(4-(trifluoromethyl)phenyl)-1,2,3,4-tetrahydroquinoxalin-2-yl)methyl)acrylamide]	> 6.00
CC(=O)NCC1CN(c2ccc(C(F)(F)F)cc2)c2ccccc2N1CCCO (stereo not drawn) [compound 6, N-((1-(3-hydroxypropyl)-4-(4-(trifluoromethyl)phenyl)-1,2,3,4-tetrahydroquinoxalin-2-yl)methyl)acetamide]	< 5.00
C=CC(=O)NCC1CN(c2ccc(C(F)(F)F)cc2)c2ccccc2N1CCC(=O)O (stereo not drawn) [compound 7, 3-(2-(acrylamidomethyl)-4-(4-(trifluoromethyl)phenyl)-3,4-dihydroquinoxalin-1(2H)-yl)propanoic acid]	< 5.00
CC(=O)NCC1CN(c2ccc(C(F)(F)F)cc2)c2ccccc2N1CCC(=O)O (stereo not drawn) [compound 8, 3-(2-(acetamidomethyl)-4-(4-(trifluoromethyl)phenyl)-3,4-dihydroquinoxalin-1(2H)-yl)propanoic acid]	< 5.00
C=CC(=O)NCC1CN(c2ccc(C(F)(F)F)cc2)c2ccccc2N1CCC(=O)NC (stereo not drawn) [compound 9, N-((1-(3-(methylamino)-3-oxopropyl)-4-(4-(trifluoromethyl)phenyl)-1,2,3,4-tetrahydroquinoxalin-2-yl)methyl)acrylamide]	> 6.00
O=C1CN2c3ccccc3N(c3ccc(C(F)(F)F)cc3)CC2CN1 (stereo not drawn) [compound 10, 6-(4-(trifluoromethyl)phenyl)-4,4a,5,6-tetrahydro-1H-pyrazino[1,2-a]quinoxalin-2(3H)-one]	5.00 to 6.00
C=CC(=O)NCC1CN(c2ccc(C(F)(F)F)cc2)c2ccccc2N1CC(N)=O (stereo not drawn) [compound 11, N-((1-(2-amino-2-oxoethyl)-4-(4-(trifluoromethyl)phenyl)-1,2,3,4-tetrahydroquinoxalin-2-yl)methyl)acrylamide]	> 6.00
C=CC(=O)NCC1CN(c2ccc(C(F)(F)F)cc2)c2ccccc2N1CC(=O)NC (stereo not drawn) [compound 12, N-((1-(2-(methylamino)-2-oxoethyl)-4-(4-(trifluoromethyl)phenyl)-1,2,3,4-tetrahydroquinoxalin-2-yl)methyl)acrylamide]	> 6.00
CS(=O)(=O)N1CCN2c3ccccc3N(c3ccc(C(F)(F)F)cc3)CC2C1 (stereo not drawn) [compound 16, 3-(methylsulfonyl)-6-(4-(trifluoromethyl)phenyl)-2,3,4,4a,5,6-hexahydro-1H-pyrazino[1,2-a]quinoxaline]	> 6.00
C=CC(=O)NCC1CN(c2ccc(C(F)(F)F)cc2)c2ccccc2N1C(C)=O (stereo not drawn) [compound 18, N-((1-acetyl-4-(4-(trifluoromethyl)phenyl)-1,2,3,4-tetrahydroquinoxalin-2-yl)methyl)acrylamide]	5.00 to 6.00
CC(=O)NCC1CN(c2ccc(C(F)(F)F)cc2)c2ccccc2N1C (stereo not drawn) [compound 19, N-((1-methyl-4-(4-(trifluoromethyl)phenyl)-1,2,3,4-tetrahydroquinoxalin-2-yl)methyl)acetamide]	5.00 to 6.00
COC(=O)N1CCN2c3ccccc3N(c3ccc(C(F)(F)F)cc3)CC2C1 (stereo not drawn) [compound 20, methyl 6-(4-(trifluoromethyl)phenyl)-1,2,4,4a,5,6-hexahydro-3H-pyrazino[1,2-a]quinoxaline-3-carboxylate]	> 6.00
C=CC(=O)N1CCN2CCN(c3ccc(C(F)(F)F)cc3)CC2C1 (stereo not drawn) [compound 21, 1-(8-(4-(trifluoromethyl)phenyl)octahydro-2H-pyrazino[1,2-a]pyrazin-2-yl)prop-2-en-1-one]	> 6.00
C=CC(=O)NCC1CN(c2ccc(C(F)(F)F)cc2)c2ccccc2N1S(C)(=O)=O (stereo not drawn) [compound 23, N-((1-(methylsulfonyl)-4-(4-(trifluoromethyl)phenyl)-1,2,3,4-tetrahydroquinoxalin-2-yl)methyl)acrylamide]	> 6.00
Cc1nnc(N2CCN3c4ccccc4N(c4ccc(C(F)(F)F)cc4)CC3C2)o1 (stereo not drawn) [compound 24, 2-methyl-5-(6-(4-(trifluoromethyl)phenyl)-1,2,4,4a,5,6-hexahydro-3H-pyrazino[1,2-a]quinoxalin-3-yl)-1,3,4-oxadiazole]	< 5.00

Compound	pIC50
FC(F)(F)c1ccc(N2CC3CN(c4ncco4)CCN3c3ccccc32)cc1 (stereo not drawn) [compound 25, 2-(6-(4-(trifluoromethyl)phenyl)-1,2,4,4a,5,6-hexahydro-3H-pyrazino[1,2-a]quinoxalin-3-yl)oxazole]	< 5.00
CN1CCN2c3ccccc3N(c3ccc(C(F)(F)F)cc3)CC2C1 (stereo not drawn) [compound 26, 3-methyl-6-(4-(trifluoromethyl)phenyl)-2,3,4,4a,5,6-hexahydro-1H-pyrazino[1,2-a]quinoxaline]	5.00 to 6.00
C=CC(=O)NCC1CN(c2ccc(C(F)(F)F)cc2)c2cccnc2N1C (stereo not drawn) [compound 27, N-((4-methyl-1-(4-(trifluoromethyl)phenyl)-1,2,3,4-tetrahydropyrido[2,3-b]pyrazin-3-yl)methyl)acrylamide]	> 6.00
O=Cc1ccc(CN2CCN3c4ccccc4N(c4ccc(C(F)(F)F)cc4)CC3C2)cc1O (stereo not drawn) [compound 30, 2-hydroxy-4-((6-(4-(trifluoromethyl)phenyl)-1,2,4,4a,5,6-hexahydro-3H-pyrazino[1,2-a]quinoxalin-3-yl)methyl)benzaldehyde]	5.00 to 6.00
O=C(O)CN1CCN2c3ccccc3N(c3ccc(C(F)(F)F)cc3)CC2C1 (stereo not drawn) [compound 31, 2-(6-(4-(trifluoromethyl)phenyl)-1,2,4,4a,5,6-hexahydro-3H-pyrazino[1,2-a]quinoxalin-3-yl)acetic acid]	5.00 to 6.00
C=CC(=O)N1CCN2CC(=O)N(c3ccc(C(F)(F)F)cc3)CC2C1 (stereo not drawn) [compound 33, 8-acryloyl-2-(4-(trifluoromethyl)phenyl)-hexahydro-2H-pyrazino[1,2-a]pyrazin-3(4H)-one]	> 6.00
CC(=O)N1CCN2c3nccnc3N(c3ccc(C(F)(F)F)cc3)CC2C1 (stereo not drawn) [compound 40, 1-(5-(4-(trifluoromethyl)phenyl)-5,6,6a,7,9,10-hexahydro-8H-dipyrazino[1,2-a:2′,3′-e]pyrazin-8-yl)ethan-1-one]	> 6.00
C=CC(=O)N1CCN2c3nccnc3N(c3ccc(C(F)(F)F)cc3)CC2C1 (stereo not drawn) [compound 41, 1-(5-(4-(trifluoromethyl)phenyl)-5,6,6a,7,9,10-hexahydro-8H-dipyrazino[1,2-a:2′,3′-e]pyrazin-8-yl)prop-2-en-1-one]	> 6.00
C=CC(=O)N1CCN2C(C1)CN(c1ccc(C(F)(F)F)cc1)C1C2C1(Cl)Cl (stereo not drawn) [compound 43, 1-(1,1-dichloro-2-(4-(trifluoromethyl)phenyl)octahydrocyclopropa[e]pyrazino[1,2-a]pyrazin-5(1H)-yl)prop-2-en-1-one]	> 6.00
CC(=O)N1CCN2C(=O)CN(c3ccc(C(F)(F)F)cc3)CC2C1 (stereo not drawn) [compound 44, 8-acetyl-2-(4-(trifluoromethyl)phenyl)octahydro-4H-pyrazino[1,2-a]pyrazin-4-one]	< 5.00
CNS(=O)(=O)N1CCN2c3ncccc3N(c3ccc(C(F)(F)F)cc3)CC2C1 (stereo not drawn) [compound 45, N-methyl-5-(4-(trifluoromethyl)phenyl)-5,6,6a,7,9,10-hexahydro-8H-pyrazino[1,2-a]pyrido[3,2-e]pyrazine-8-sulfonamide]	> 6.00
O=C(C1CC1)N1CCN2c3ncccc3N(c3ccc(C(F)(F)F)cc3)CC2C1 (stereo not drawn) [compound 46, Cyclopropyl(5-(4-(trifluoromethyl)phenyl)-5,6,6a,7,9,10-hexahydro-8H-pyrazino[1,2-a]pyrido[3,2-e]pyrazin-8-yl)methanone]	> 6.00
CC(C)C(=O)N1CCN2c3ncccc3N(c3ccc(C(F)(F)F)cc3)CC2C1 (stereo not drawn) [compound 47, 2-methyl-1-(5-(4-(trifluoromethyl)phenyl)-5,6,6a,7,9,10-hexahydro-8H-pyrazino[1,2-a]pyrido[3,2-e]pyrazin-8-yl)propan-1-one]	> 6.00
C=CC(=O)NCC1CN(c2ccc(C(F)(F)F)cc2)c2cccnc2O1 (stereo not drawn) [compound 48, N-((1-(4-(trifluoromethyl)phenyl)-2,3-dihydro-1H-pyrido[2,3-b][1,4]oxazin-3-yl)methyl)acrylamide]	> 6.00
CC(=O)NCC1CN(c2ccc(C(F)(F)F)cc2)c2cccnc2O1 (stereo not drawn) [compound 49, N-((1-(4-(trifluoromethyl)phenyl)-2,3-dihydro-1H-pyrido[2,3-b][1,4]oxazin-3-yl)methyl)acetamide]	> 6.00
FC(F)(F)c1ccc(N2CCN(Cc3nnc[nH]3)c3ccccc32)cc1 [compound 50, 1-((4H-1,2,4-triazol-3-yl)methyl)-4-(4-(trifluoromethyl)phenyl)-1,2,3,4-tetrahydroquinoxaline]	> 6.00

Source: patent US20240409556A1, “BENZOPIPERAZINE AND RELATED ANALOGS FOR INHIBITING YAP/TAZ-TEAD” (Springworks Therapeutics, Inc., priority 2023, published 2024)
